Data: patent US20260108527A1, “POLO LIKE KINASE 4 INHIBITORS” (ORIC Pharmaceuticals, Inc., priority 2022, published 2026)

Assays:
human recombinant PLK4 = molecular target: T1, human recombinant PLK4 (Homo sapiens, UniProt O00444); assay: PLK4 Biochemical Assay (ADP-Glo); details: 0.5 nM PLK4, 8.0 μM ATP, 4.7 μM MBP, 6 hours at RT
T1 construct: purchased ThermoFisher PV6396
T1 sequence (O00444 1-970): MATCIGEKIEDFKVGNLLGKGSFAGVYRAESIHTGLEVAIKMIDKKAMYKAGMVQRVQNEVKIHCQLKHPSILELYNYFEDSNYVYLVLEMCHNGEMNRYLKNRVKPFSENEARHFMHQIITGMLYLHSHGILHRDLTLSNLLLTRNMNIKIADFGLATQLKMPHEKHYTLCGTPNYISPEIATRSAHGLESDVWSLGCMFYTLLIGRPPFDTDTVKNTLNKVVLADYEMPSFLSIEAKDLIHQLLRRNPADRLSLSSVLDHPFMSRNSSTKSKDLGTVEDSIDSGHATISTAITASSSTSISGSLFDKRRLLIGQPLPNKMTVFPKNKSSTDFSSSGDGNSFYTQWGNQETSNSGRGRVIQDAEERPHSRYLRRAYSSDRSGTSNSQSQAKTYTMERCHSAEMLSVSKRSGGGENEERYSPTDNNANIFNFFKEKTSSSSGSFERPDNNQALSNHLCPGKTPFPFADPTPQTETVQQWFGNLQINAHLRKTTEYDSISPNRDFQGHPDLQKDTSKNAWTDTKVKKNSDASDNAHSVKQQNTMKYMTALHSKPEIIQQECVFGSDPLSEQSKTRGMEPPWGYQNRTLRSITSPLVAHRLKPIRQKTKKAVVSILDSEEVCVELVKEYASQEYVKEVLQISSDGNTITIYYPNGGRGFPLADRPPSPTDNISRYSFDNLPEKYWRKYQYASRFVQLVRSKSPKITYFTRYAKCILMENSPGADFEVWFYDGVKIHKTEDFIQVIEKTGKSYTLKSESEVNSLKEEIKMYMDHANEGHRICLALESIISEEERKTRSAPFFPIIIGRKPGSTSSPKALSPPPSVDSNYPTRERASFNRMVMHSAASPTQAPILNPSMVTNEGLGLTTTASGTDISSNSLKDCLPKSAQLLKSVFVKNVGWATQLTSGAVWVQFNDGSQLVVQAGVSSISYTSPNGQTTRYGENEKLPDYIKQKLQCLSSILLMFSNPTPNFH
Procedure: Activity of human recombinant PLK4 (ThermoFisher, cat #PV6396) was measured by quantification of adenosine diphosphate (ADP) using the ADP-Glo Kinase Assay Kit (Promega, cat #V9102). […] 5 μL of 1.0 nM PLK4 protein in assay buffer (50 mM HEPES, pH 7.5, 0.01% Brij-35, 0.01% BSA, 10 mM MgCl2, 1 mM EGTA, 1 mM DTT) was added to the plates. Test compounds and PLK4 were incubated for 15 minutes at room temperature (RT). […] Reactions were stopped and the remaining ATP depleted by adding 10 μL of ADP-Glo reagent (Promega, cat #V912B) and incubating for 40 minutes at RT. The simultaneous conversion of the remaining ADP to ATP and measurement of the newly synthesized ATP was achieved by addition of 20 μL Kinase Detection reagent (Promega, cat #V914B), incubation for 30 min at RT, and luminescence detection using the EnVision plate reader (PerkinElmer). […] The IC50 values reported in Table 2 were determined using four parameter non-linear regression curve fit.

CHP134 = CHP134 CellTiter-Glo (CTG) Assay; type: cell-based; details: Homo sapiens, CHP-134, 120 h; viable cells by CellTiter-Glo after 5 days
Procedure: […] cells (DSMZ-German Collection of Microorganisms and Cell Cultures, Braunschweig Germany) were cultured in RPMI 1640 supplemented with 10% fetal bovine serum, penicillin (100 U/ml), 1% L-Glutamine and streptomycin ([…]). Cells were seeded (200 cells/well) in 384-well plates for 16 hours. On day two, nine serial 1:3 compound dilutions were made in DMSO in a 96-well plate. The compounds were then further diluted into growth media using a BRAVO robot (Agilent, Santa Clara, CA). The diluted compounds were then added to quadruplicate wells in the 384-well cell plate and incubated at 37° C. and 5% CO2. After 5 days, relative numbers of viable cells were measured by luminescence using CellTiter-Glo® (Promega) according to the manufacturer's instructions and read on a SPARK Multimode Microplate Reader (Tecan, Mannedorf Switzerland). The IC50 calculations for the values reported in Table 2 were carried out using Prism 6.0 software (GraphPad, San Diego).

[1] = molecular target: T2, human recombinant Aurora B (Homo sapiens, UniProt Q96GD4); assay: Aurora B Kinase Biochemical Assay (ADP-Glo); details: selectivity ratio; Aurora B 10 nM, 114 μM ATP
T2 construct: purchased ThermoFisher PR9210B
Procedure: Activity of human recombinant Aurora B (ThermoFisher, cat #PR9210B) was measured by quantification of adenosine diphosphate (ADP) using the ADP-Glo Kinase Assay Kit (Promega, cat #V9102). Test compounds were solubilized in dimethyl sulfoxide (DMSO) and dispensed into 384-well white polystyrene nonbinding plates (Greiner, cat #781094) using the Echo acoustic dispenser (Labcyte Inc.) in a 11-point 3-fold titration in duplicates. 5 μL of 20 nM Aurora B in assay buffer (50 mM HEPES, pH 7.5, 0.01% Brij-35, 0.01% BSA, 10 mM MgCl2, 1 mM EGTA, 1 mM DTT) was added to the plates. Test compounds and Aurora B were incubated for 15 minutes at room temperature (RT). Then 5 μL of a 228 μM adenosine triphosphate (ATP) (Promega, cat #V915B) and 9.3 μM Myelin Basic Protein (MBP) (SignalChem, cat #M42-51N) substrate solution in assay buffer was added and the reaction mixture was incubated for 2 hours at RT. The final concentration of Aurora b, ATP and MBP in the reactions were 10 nM, 114 μM and 4.7 μM, respectively. Reactions were stopped and the remaining ATP depleted by adding 10 μL of ADP-Glo reagent (Promega, cat #V912B) and incubating for 40 minutes at RT. The simultaneous conversion of the remaining ADP to ATP and measurement of the newly synthesized ATP was achieved by addition of 20 μL Kinase Detection reagent (Promega, cat #V9141B), incubation for 30 min at RT, and luminescence detection using the EnVision plate reader (PerkinElmer). Reactions lacking Aurora B were used as […]. Reactions containing DMSO alone were used as […]. The IC50 values reported in Table 2 were determined using four parameter non-linear regression curve fit.

T2 sequence (Q96GD4 whole entry): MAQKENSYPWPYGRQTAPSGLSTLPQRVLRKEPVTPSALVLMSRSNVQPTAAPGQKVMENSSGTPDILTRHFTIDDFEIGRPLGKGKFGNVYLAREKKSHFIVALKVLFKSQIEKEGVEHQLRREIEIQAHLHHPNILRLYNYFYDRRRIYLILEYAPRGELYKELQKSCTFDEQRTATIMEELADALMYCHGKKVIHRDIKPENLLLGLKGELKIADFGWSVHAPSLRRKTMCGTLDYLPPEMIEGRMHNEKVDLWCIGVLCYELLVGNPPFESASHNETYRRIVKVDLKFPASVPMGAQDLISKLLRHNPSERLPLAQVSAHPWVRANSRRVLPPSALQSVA

| IC50 (human recombinant PLK4) | [Aurora B IC50 (nM)]/[PLK4 IC50 (nM)] [1] | SMILES | IC50 (CHP134) |
| --- | --- | --- | --- |
| 2.6 nM | 990 | COc1ccc2c(c1)[C@]1(C[C@H]1c1ccc3c(Nc4cc(-c5nnn(C)n5)ccc4OC)n[nH]c3c1)C(=O)N2 [Example 21, (1R,2S)-5′-methoxy-2-{3-[2-methoxy-5-(2-methyl-2H-tetrazol-5-yl)anilino]-1H-indazol-6-yl}spiro[cyclopropane-1,3′-indol]-2′(1′H)-one] | 400 nM |
| 0.338 nM | 2740.5325 | CCOc1ncc(-c2nccs2)nc1Nc1n[nH]c2cc([C@@H]3C[C@@]34C(=O)Nc3ccc(OC)cc34)ccc12 [Example 35, (1R,2S)-2-(3-{[3-ethoxy-6-(1,3-thiazol-2-yl)pyrazin-2-yl]amino}-1H-indazol-6-yl)-5′-methoxyspiro[cyclopropane-1,3′-indol]-2′(1′H)-one] | 13.8 nM |
| 0.65 nM | 511.8461 | COc1ccc2c(c1)[C@]1(C[C@H]1c1ccc3c(Nc4cc(-c5cscn5)ccc4OC)n[nH]c3c1)C(=O)N2 [Example 15, (1R,2S)-5′-methoxy-2-{3-[2-methoxy-5-(1,3-thiazol-4-yl)anilino]-1H-indazol-6-yl}spiro[cyclopropane-1,3′-indol]-2′(1′H)-one] | 93.8 nM |
| 0.753 nM | 45644.0903 | CCOc1ccc(-c2nccs2)cc1Nc1n[nH]c2cc([C@@H]3C[C@@]34C(=O)Nc3ccc(OC)cc34)ccc12 [Example 33, (1R,2S)-2-{3-[2-ethoxy-5-(1,3-thiazol-2-yl)anilino]-1H-indazol-6-yl}-5′-methoxyspiro[cyclopropane-1,3′-indol]-2′(1′H)-one] | 41.4 nM |
| 0.894 nM | 730.6487 | COc1ccc2c(c1)[C@]1(C[C@H]1c1ccc3c(Nc4cc(-c5cocn5)ccc4OC)n[nH]c3c1)C(=O)N2 [Example 16, (1R,2S)-5′-methoxy-2-{3-[2-methoxy-5-(1,3-oxazol-4-yl)anilino]-1H-indazol-6-yl}spiro[cyclopropane-1,3′-indol]-2′(1′H)-one] | 160 nM |
| 1.8 nM | 27839.6436 | CCOc1ccc(-c2cnn(C)c2)cc1Nc1n[nH]c2cc([C@@H]3C[C@@]34C(=O)Nc3ccc(OC)cc34)ccc12 [Example 37, (1R,2S)-2-{3-[2-ethoxy-5-(1-methyl-1H-pyrazol-4-yl)anilino]-1H-indazol-6-yl}-5′-methoxyspiro[cyclopropane-1,3′-indol]-2′(1′H)-one] | 442 nM |
| 1.07 nM | 46598.3224 | CCOc1cnc(-c2nccs2)cc1Nc1n[nH]c2cc([C@@H]3C[C@@]34C(=O)Nc3ccc(OC)cc34)ccc12 [Example 34, (1R,2S)-2-(3-{[5-ethoxy-2-(1,3-thiazol-2-yl)pyridin-4-yl]amino}-1H-indazol-6-yl)-5′-methoxyspiro[cyclopropane-1,3′-indol]-2′(1′H)-one] | 139 nM |
| 2.76 nM | 256.2681 | COc1ccc2c(c1)[C@]1(C[C@H]1c1ccc3c(Nc4ccc(C(C)=O)cc4OC)n[nH]c3c1)C(=O)N2 [Example 3, (1R,2S)-2-[3-(4-acetyl-2-methoxyanilino)-1H-indazol-6-yl]-5′-methoxyspiro[cyclopropane-1,3′-indol]-2′(1′H)-one] | 308 nM |
| 0.827 nM | 1218.8633 | COc1ccc2c(c1)[C@]1(C[C@H]1c1ccc3c(Nc4cc(-c5ccon5)ccc4OC)n[nH]c3c1)C(=O)N2 [Example 32, (1R,2S)-5′-methoxy-2-{3-[2-methoxy-5-(1,2-oxazol-3-yl)anilino]-1H-indazol-6-yl}spiro[cyclopropane-1,3′-indol]-2′(1′H)-one] | 106 nM |
| 1.83 nM | 1829.1347 | CCOc1cc2ccccc2nc1Nc1n[nH]c2cc([C@@H]3C[C@@]34C(=O)Nc3ccc(OC)cc34)ccc12 [Example 8, (1R,2S)-2-{3-[(3-ethoxyquinolin-2-yl)amino]-1H-indazol-6-yl}-5′-methoxyspiro[cyclopropane-1,3′-indol]-2′(1′H)-one] | 490 nM |
| 0.817 nM | 559.1 | CCOc1cc(-n2cncn2)cnc1Nc1n[nH]c2cc([C@@H]3C[C@@]34C(=O)Nc3ccc(OC)cc34)ccc12 [Example 38, (1R,2S)-2-(3-{[3-ethoxy-5-(1H-1,2,4-triazol-1-yl)pyridin-2-yl]amino}-1H-indazol-6-yl)-5′-methoxyspiro[cyclopropane-1,3′-indol]-2′(1′H)-one] | 266 nM |
| 0.682 nM | 549.2668 | COc1ccc2c(c1)[C@]1(C[C@H]1c1ccc3c(Nc4nc(-c5ncco5)ccc4OC)n[nH]c3c1)C(=O)N2 [Example 4, (1R,2S)-5′-methoxy-2-(3-{[3-methoxy-6-(1,3-oxazol-2-yl)pyridin-2-yl]amino}-1H-indazol-6-yl)spiro[cyclopropane-1,3′-indol]-2′(1′H)-one] | 53.1 nM |
| 0.576 nM | 229.2462 | COc1ccc2c(c1)[C@]1(C[C@H]1c1ccc3c(Nc4ccc(S(C)(=O)=O)cc4OC)n[nH]c3c1)C(=O)N2 [Example 2, (1R,2S)-2-{3-[4-(methanesulfonyl)-2-methoxyanilino]-1H-indazol-6-yl}-5′-methoxyspiro[cyclopropane-1,3′-indol]-2′(1′H)-one] | 88.9 nM |
| 0.16 nM | 844.375 | CCOc1cnc(-c2nccs2)nc1Nc1n[nH]c2cc([C@@H]3C[C@@]34C(=O)Nc3ccc(OC)cc34)ccc12 [Example 44, (1R,2S)-2-(3-{[5-ethoxy-2-(1,3-thiazol-2-yl)pyrimidin-4-yl]amino}-1H-indazol-6-yl)-5′-methoxyspiro[cyclopropane-1,3′-indol]-2′(1′H)-one] | 22 nM |
